Measurements reported in patent US20260132132A1, “3A,4,5,6-TETRAHYDRO-1 H-PYRAZOLO[3,4-C]PYRIDIN-7(7AH)-ONE DERIVATIVES AS FACTOR XIIA INHIBITORS” (KALVISTA PHARMACEUTICALS LIMITED, priority 2022, published 2026).

What was measured:
Thrombin = Thrombin (Homo sapiens, UniProt P00734); assay: Related protease inhibition: Thrombin, fluorogenic substrate; format: biochemical; conditions: fluorogenic substrate at Km, 25° C.; H1-H3 = % activity at 40 μM; read-out: IC50 (human thrombin) nM
Procedure: (§1) Human serine protease enzyme Plasma Kallikrein, KLK1, FXa, Plasmin, Thrombin and Trypsin were assayed for enzymatic activity using an appropriate fluorogenic substrate at Km concentration, FXIa at fixed substrate concentration of 100 μM and various concentrations of the test compound.

[1] = Pharmacokinetics following a single intravenous dose and a single oral dose in rats; format: in vivo; conditions: rat, male Sprague-Dawley rats, single iv dose (nominal 1 mg/kg) and single oral dose (nominal 5 mg/kg) in 10% DMSO/10% Cremophor EL/80% SWFI, plasma by LCMS, Phoenix WinNonlin; for bioavailability: read-out: F % (oral bioavailability); for half-life: route for T½ not stated
Procedure: Pharmacokinetic studies of the compounds in Table 10 were performed to assess the pharmacokinetics following a single intravenous dose and a single oral dose in male Sprague-Dawley rats. Two rats were given a single intravenous dose of 1 ml/kg of a nominal 1 mg/ml (1 mg/kg) composition of test compound in 10% DMSO/10% Cremophor EL/80% SWFI vehicle. Two rats were given a single oral dose of 5 mL/kg of a nominal 1 mg/ml (5 mg/kg) composition of test compound in 10% DMSO/10% Cremophor EL/80% SWFI vehicle.
Following intravenous dosing, blood samples were collected over a period of 12 h. Sample times were 2, 5, 15 and 30 min then 1, 2, 4, 6, and 12 h. Following oral dosing, blood samples were collected over a period of 24 h. Sample times were 5, 15 and 30 min then 1, 2, 4, 6, 8, 12 and 24 h.
Following collection, blood samples were centrifuged and the plasma fraction analysed for concentration of test compound by LCMS. Oral bioavailability and half-life calculations from these studies were obtained using Phoenix WinNonlin (v8.0) and are shown below: […]

FXa = FXa (Homo sapiens, UniProt P00742); assay: Related protease inhibition: FXa, fluorogenic substrate; format: biochemical; conditions: fluorogenic substrate at Km, 25° C., H1-H3 = % activity at 40 μM; for activity at 40 µM: read-out: IC50 (human FXa) nM
Procedure: as §1

[2] = biological target: T1, Human Factor XIIa (hFXIIa) (Homo sapiens, UniProt P00748); assay: Determination of Human Factor XIIa (hFXIIa) inhibition, fluorogenic substrate IC50 assay; format: biochemical; conditions: fluorogenic substrate H-DPro-Phe-Arg-AFC at Km, 25° C., read-out: Human FXIIa IC50
T1 construct: purchased Enzyme Research Laboratories
T1 sequence (P00748 373-615 limits assumed): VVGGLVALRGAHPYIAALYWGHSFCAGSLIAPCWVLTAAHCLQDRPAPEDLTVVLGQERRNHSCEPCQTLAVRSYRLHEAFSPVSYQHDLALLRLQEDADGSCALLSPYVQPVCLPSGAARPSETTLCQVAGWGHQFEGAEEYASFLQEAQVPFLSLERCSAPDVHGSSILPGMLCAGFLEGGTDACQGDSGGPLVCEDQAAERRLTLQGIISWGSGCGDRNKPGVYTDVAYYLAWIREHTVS
T1 sequence (P00748 20-372 partner limits assumed): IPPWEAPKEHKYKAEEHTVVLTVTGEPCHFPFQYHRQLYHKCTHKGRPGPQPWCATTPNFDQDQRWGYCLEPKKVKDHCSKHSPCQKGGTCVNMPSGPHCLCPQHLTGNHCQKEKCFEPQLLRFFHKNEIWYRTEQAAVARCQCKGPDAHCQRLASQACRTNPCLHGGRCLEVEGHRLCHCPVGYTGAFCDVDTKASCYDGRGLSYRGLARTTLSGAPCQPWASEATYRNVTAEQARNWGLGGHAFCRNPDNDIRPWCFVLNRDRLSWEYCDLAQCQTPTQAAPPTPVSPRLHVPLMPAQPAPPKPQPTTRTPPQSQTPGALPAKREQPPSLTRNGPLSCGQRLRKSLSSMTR
Procedure: Determination of Human Factor XIIa (hFXIIa) inhibition
The Km for the cleavage of the substrate by hFXIIa was determined by standard transformation of the Michaelis-Menten equation, with subsequent inhibition assays performed at substrate Km concentration.

[3] = test system: patients with type I/II hereditary angioedema (HAE); conditions: phase 3 study; monthly prophylactic subcutaneous treatment; cited from earlier work

Chain of FXa (P00742 235-488 limits assumed): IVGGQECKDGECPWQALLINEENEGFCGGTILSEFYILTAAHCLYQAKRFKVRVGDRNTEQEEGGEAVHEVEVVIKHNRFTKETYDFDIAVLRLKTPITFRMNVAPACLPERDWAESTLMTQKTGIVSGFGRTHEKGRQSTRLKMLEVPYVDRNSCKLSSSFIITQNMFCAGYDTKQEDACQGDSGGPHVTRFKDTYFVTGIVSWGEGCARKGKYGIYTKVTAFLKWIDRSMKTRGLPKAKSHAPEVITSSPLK
Chain of FXa (P00742 41-179 partner limits assumed): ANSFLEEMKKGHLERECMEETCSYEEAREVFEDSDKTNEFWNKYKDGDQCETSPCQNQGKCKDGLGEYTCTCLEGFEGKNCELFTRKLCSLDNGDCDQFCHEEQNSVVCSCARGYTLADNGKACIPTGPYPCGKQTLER

activity at 40 µM (Thrombin) | bioavailability [1] | half-life [1] | activity at 40 µM (FXa) | IC50 [2] | IC50 (FXa) | Compound | attacks in patients with type I/II hereditary angioedema (HAE) [3]
> 80% | 57% | 0.817 h | 20 to 80% | 10 to 100 nM |  | CN1CCOc2ccc(N3CCc4c(C(=O)N[C@@H]5CCOC5)nn(-c5cccc(Cl)c5F)c4C3=O)cc2C1=O [Example 2048, (R)-1-(3-chloro-2-fluorophenyl)-6-(4-methyl-5-oxo-2,3,4,5-tetrahydrobenzo[f][1,4]oxazepin-7-yl)-7-oxo-N-(tetrahydrofuran-3-yl)-4,5,6,7-tetrahydro-1H-pyrazolo[3,4-c]pyridine-3-carboxamide] | 
 | 22% | 1.17 h |  | 10 to 100 nM | 10000 to 40000 nM | Cc1cc(CNC(=O)c2nn(-c3cccc(Cl)c3)c3c2CCN(c2cc4c(cn2)CCN(CCO)C4)C3=O)nn1C [Example 1220, 1-(3-chlorophenyl)-N-((1,5-dimethyl-1H-pyrazol-3-yl)methyl)-6-(6-(2-hydroxyethyl)-5,6,7,8-tetrahydro-2,6-naphthyridin-3-yl)-7-oxo-4,5,6,7-tetrahydro-1H-pyrazolo[3,4-c]pyridine-3-carboxamide] | 
 |  |  |  |  |  | Garadacimab: "a monoclonal antibody inhibitory against FXIIa" | reduce attacks
> 80% | 28% | 1.42 h | < 20% | 10 to 100 nM |  | CN1CCOc2ccc(N3CCc4c(C(=O)N[C@@H](CO)C5CC5)nn(-c5cccc(Cl)c5F)c4C3=O)cc2C1=O [Example 2049, (R)-1-(3-chloro-2-fluorophenyl)-N-(1-cyclopropyl-2-hydroxyethyl)-6-(4-methyl-5-oxo-2,3,4,5-tetrahydrobenzo[f][1,4]oxazepin-7-yl)-7-oxo-4,5,6,7-tetrahydro-1H-pyrazolo[3,4-c]pyridine-3-carboxamide] | 
